The record followed here is ChEMBL document CHEMBL4402531, “Recent advances in α,β-unsaturated carbonyl compounds as mitochondrial toxins” (Eur J Med Chem, 2019).

pIC50: −log10 of the molar value.

The test system of one test is HepG2. The experiment in a line: Growth inhibition of human HepG2 cells. It counts as functional, cell-based.
A further test deals with MGC-803. As to the kind of experiment: Cytotoxicity against human MGC803 cells assessed as reduction in cell viability after 24 hrs by MTT assay. The test is classed as functional, cell-based. The settings on record: MGC-803, 24 h. (Tetrazolium assays rely on reduction of a dye to a coloured formazan, in cell work by metabolically active cells.)
A further test has as its system HGC-27. As to the kind of experiment: Cytotoxicity against human HGC27 cells assessed as reduction in cell viability after 24 hrs by MTT assay. The test is classed as functional, cell-based. The settings on record: HGC-27, 24 h.
In another test the test system is SGC-7901. As to the kind of experiment: Cytotoxicity against human SGC7901 cells assessed as reduction in cell viability after 24 hrs by MTT assay. It counts as functional, cell-based. The settings on record: SGC-7901, 24 h.
A further test concerns CNE. The experiment in a line: Cytotoxicity against human CNE1 cells assessed as reduction in cell viability after 48 hrs. It counts as functional, cell-based.
The subject of another test is CNE-2. As to the kind of experiment: Cytotoxicity against human CNE2 cells assessed as reduction in cell viability after 48 hrs. The settings on record: CNE-2, 48 h. It counts as functional, cell-based.
Another test relates to LNCaP. As to the kind of experiment: Cytotoxicity against human LNCAP cells assessed as reduction in cell viability relative to control. It counts as functional.
The next test concerns LNCaP C4-2. As to the kind of experiment: Cytotoxicity against human C4-2 cells assessed as reduction in cell viability relative to control. The test is classed as functional.
Test [1] has as its system PC-3. As to the kind of experiment: Cytotoxicity against human PC3 cells assessed as reduction in cell viability relative to control. It counts as functional.
In the next test the test system is DU-145. The experiment in a line: Cytotoxicity against human DU145 cells assessed as reduction in cell viability relative to control. It counts as functional.
Test [2] deals with MCF7. As to the kind of experiment: Cytotoxicity against human MCF7 cells assessed as reduction in cell viability at 0.01 uM after 48 hrs by fluorescence assay relative to control. The test is classed as functional.
Test [3] relates to MCF7. The experiment in a line: Cytotoxicity against human MCF7 cells assessed as reduction in cell viability at 5 uM after 48 hrs by fluorescence assay relative to control. The test is classed as functional.
In test [4] the test system is K562. The experiment in a line: Cell cycle arrest in human K562 cells assessed as accumulation at G0 phase. The test is classed as functional, cell-based.
Test [5] has as its system K562. The experiment in a line: Cell cycle arrest in human K562 cells assessed as accumulation at G1 phase. The test is classed as functional, cell-based.
The test system of test [6] is K562. The experiment in a line: Induction of apoptosis in human K562 cells. It counts as functional, cell-based.
The next test has as its system HCT-116. As to the kind of experiment: Cytotoxicity against human HCT116 cells assessed as reduction in cell viability after 72 hrs by MTT assay. It counts as functional, cell-based. The settings on record: HCT-116, 72 h.
In test [7] the test system is SiHa. As to the kind of experiment: Cytotoxicity against human SiHa cells assessed as reduction in cell viability after 24 hrs by MTT assay. The test is classed as functional, cell-based.
The subject of test [8] is HeLa. As to the kind of experiment: Cytotoxicity against human HeLa cells assessed as reduction in cell viability after 24 hrs by MTT assay. The test is classed as functional, cell-based.
In another test the test system is HK-2. As to the kind of experiment: Cytotoxicity against human HK2 cells assessed as reduction in cell viability after 24 to 48 hrs by MTT assay. The test is classed as cell-based.
The test system of a further test is WI-38. As to the kind of experiment: Cytotoxicity against human WI38 cells assessed as reduction in cell viability after 24 to 48 hrs by MTT assay. It counts as cell-based.
For test [9], the system named is MCF7. The experiment in a line: Cytotoxicity against human MCF7 cells assessed as reduction in cell viability after 24 to 48 hrs by MTS assay. The test is classed as functional, cell-based.
In the next test the test system is MDA-MB-231. As to the kind of experiment: Cytotoxicity against human MDA-MB-231 cells assessed as reduction in cell viability after 24 to 48 hrs by MTS assay. The test is classed as functional, cell-based.
The test system of the next test is MSTO-211H. The experiment in a line: Cytotoxicity against human MSTO-211H cells assessed as reduction in cell viability after 24 to 48 hrs by MTS assay. The test is classed as functional, cell-based.
The test system of a further test is NCI-H28. The experiment in a line: Cytotoxicity against human NCI-H28 cells assessed as reduction in cell viability after 24 to 48 hrs by MTS assay. It counts as functional, cell-based.
A further test concerns MG-63. The experiment in a line: Cytotoxicity against human MG63 cells assessed as reduction in cell viability after 48 hrs. The test is classed as functional, cell-based. The settings on record: MG-63, 48 h.
In a further test the test system is U2OS. As to the kind of experiment: Cytotoxicity against human U2OS cells assessed as reduction in cell viability after 48 hrs. It counts as functional, cell-based.
Test [10] concerns PC-3. The experiment in a line: Cytotoxicity against human PC3 cells assessed as reduction in cell viability. The test is classed as functional, cell-based.
Another test deals with HL-60. As to the kind of experiment: Cytotoxicity against human HL60 cells assessed as reduction in cell viability. The test is classed as functional, cell-based.
Another test has as its system Ca-Ski. The experiment in a line: Cytotoxicity against human CaSki cells assessed as reduction in cell viability after 72 hrs. It counts as functional, cell-based.
Test [11] relates to SiHa. As to the kind of experiment: Cytotoxicity against human SiHa cells assessed as reduction in cell viability after 72 hrs. The test is classed as functional, cell-based.
The subject of test [12] is HeLa. The experiment in a line: Cytotoxicity against human HeLa cells assessed as reduction in cell viability after 72 hrs. It counts as functional, cell-based.
A further test concerns C-33-A. As to the kind of experiment: Cytotoxicity against human C33A cells assessed as reduction in cell viability after 72 hrs. It counts as functional, cell-based.
The subject of a further test is PC-12. The experiment in a line: Cytotoxicity against rat PC12 cells assessed as reduction in cell viability after 48 hrs by MTT assay. It counts as functional, cell-based. The settings on record: PC-12, 48 h.
The test system of another test is L02. The experiment in a line: Cytotoxicity against human LO2 cells assessed as reduction in cell viability after 48 hrs by MTT assay. The test is classed as functional, cell-based. The settings on record: L02, 48 h.
Test [13] deals with SiHa. The experiment in a line: Cytotoxicity against human SiHa cells assessed as reduction in cell viability after 72 hrs by MTT assay. It counts as functional, cell-based.
Test [14] deals with HeLa. The experiment in a line: Cytotoxicity against human HeLa cells assessed as reduction in cell viability after 72 hrs by MTT assay. It counts as functional, cell-based.
Test [15] deals with MCF7. As to the kind of experiment: Cytotoxicity against human MCF7 cells assessed as reduction in cell viability. The test is classed as functional, cell-based.
In test [16] the test system is HeLa. The experiment in a line: Cytotoxicity against human HeLa cells assessed as reduction in cell viability. The test is classed as functional, cell-based.
Test [17] concerns the target RAF proto-oncogene serine/threonine-protein kinase (Homo sapiens) (UniProt P04049). The experiment in a line: Inhibition of c-RAF (unknown origin) phosphorylation relative to control. The settings on record: concentration not given here.
Test [18] concerns the target Dual specificity mitogen-activated protein kinase kinase; MEK1/2 (Homo sapiens) (UniProt P36507+Q02750). As to the kind of experiment: Inhibition of MEK (unknown origin) phosphorylation relative to control. The test is classed as protein assay. The settings on record: concentration not given here.
The species named for the next test is Homo sapiens. As to the kind of experiment: Inhibition of ERK (unknown origin) phosphorylation relative to control. The settings on record: concentration not given here.

RAF proto-oncogene serine/threonine-protein kinase (Homo sapiens), sequence (P04049 whole entry): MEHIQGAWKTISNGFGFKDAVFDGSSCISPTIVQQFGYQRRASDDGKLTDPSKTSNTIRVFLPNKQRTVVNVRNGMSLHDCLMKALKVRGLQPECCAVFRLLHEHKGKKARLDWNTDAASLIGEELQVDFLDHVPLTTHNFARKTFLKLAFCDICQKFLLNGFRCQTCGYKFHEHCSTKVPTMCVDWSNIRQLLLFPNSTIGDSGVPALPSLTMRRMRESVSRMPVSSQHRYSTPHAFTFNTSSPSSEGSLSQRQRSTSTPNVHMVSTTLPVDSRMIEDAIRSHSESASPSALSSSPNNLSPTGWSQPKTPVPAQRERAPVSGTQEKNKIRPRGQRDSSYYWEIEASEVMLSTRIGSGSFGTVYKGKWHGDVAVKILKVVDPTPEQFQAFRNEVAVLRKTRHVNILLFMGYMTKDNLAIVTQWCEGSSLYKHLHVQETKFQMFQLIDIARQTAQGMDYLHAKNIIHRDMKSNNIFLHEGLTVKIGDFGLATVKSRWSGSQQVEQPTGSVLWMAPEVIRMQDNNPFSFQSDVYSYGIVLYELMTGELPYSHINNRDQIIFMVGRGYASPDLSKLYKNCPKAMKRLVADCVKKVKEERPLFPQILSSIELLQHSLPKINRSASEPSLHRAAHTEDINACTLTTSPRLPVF
Dual specificity mitogen-activated protein kinase kinase; MEK1/2 (Homo sapiens), sequence (P36507 whole entry, looked up): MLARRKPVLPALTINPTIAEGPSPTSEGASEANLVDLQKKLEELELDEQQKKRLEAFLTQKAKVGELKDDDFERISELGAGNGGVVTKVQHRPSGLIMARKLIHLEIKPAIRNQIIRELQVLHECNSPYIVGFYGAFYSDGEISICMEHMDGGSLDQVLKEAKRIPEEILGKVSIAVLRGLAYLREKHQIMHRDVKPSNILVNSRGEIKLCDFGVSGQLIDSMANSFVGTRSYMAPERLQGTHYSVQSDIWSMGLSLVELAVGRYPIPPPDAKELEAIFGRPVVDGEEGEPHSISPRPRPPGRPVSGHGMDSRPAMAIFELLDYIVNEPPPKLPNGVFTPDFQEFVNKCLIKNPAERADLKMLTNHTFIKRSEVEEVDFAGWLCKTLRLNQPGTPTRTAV
Dual specificity mitogen-activated protein kinase kinase; MEK1/2 (Homo sapiens), sequence (Q02750 whole entry, looked up): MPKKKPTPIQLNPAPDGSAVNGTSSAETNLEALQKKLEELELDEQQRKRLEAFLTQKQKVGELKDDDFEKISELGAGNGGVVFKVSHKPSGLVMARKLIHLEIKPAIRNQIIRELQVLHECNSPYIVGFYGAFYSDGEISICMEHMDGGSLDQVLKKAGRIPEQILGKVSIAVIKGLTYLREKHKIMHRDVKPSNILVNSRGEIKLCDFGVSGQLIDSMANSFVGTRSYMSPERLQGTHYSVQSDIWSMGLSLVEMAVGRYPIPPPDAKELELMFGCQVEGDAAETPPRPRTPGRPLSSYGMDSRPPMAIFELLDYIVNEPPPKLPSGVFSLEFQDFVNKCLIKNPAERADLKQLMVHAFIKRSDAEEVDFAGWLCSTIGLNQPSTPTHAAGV

As usually defined, the pIC50 is the IC50 on a negative log10 scale, so that one unit is a factor of ten. `CCCCC/C=C/C(=O)CCc1ccc(O)c(OC)c1` [SHOGAOL] showed a pIC50 in the test on HepG2 of 4.06.
For the compound `COc1ccc(Br)cc1C(=O)/C=C/c1ccc(S(C)(=O)=O)cc1`, the pIC50 in the test with MGC-803, in the test with HGC-27 and in the test on SGC-7901 was 5.25 to 5.45 throughout.
On to `C=C1C(=O)[C@]23[C@H](O)[C@@H]1CC[C@H]2[C@]12CCCC(C)(C)[C@H]1[C@H](O)[C@@]3(O)OC2`, for which the figures for the negative logarithm of the IC50 (pIC50) with CNE and with CNE-2 were 5.90 and 5.82, respectively.
Regarding `COc1cc(O)c(CC=C(C)C)c(O)c1C(=O)/C=C/c1ccc(O)cc1` [XANTHOHUMOL], the Activity in the test with LNCaP is listed as 41%; in the test on LNCaP C4-2 it was 30%; with PC-3 [1] it was 42%; in the test on DU-145 it was 38%; in the test with MCF7 [2], 39.6%; with MCF7 [3], -57.3%.
Consider `COc1cc(/C=C/C(=O)C(=Cc2ccncc2)C(=O)/C=C/c2ccc(O)c(OC)c2)ccc1O`, for which the pIC50 in the test with K562 [4] is 6.22; in the test on K562 [5], 5.49 to 6.40; in the test with K562 [6] it was 5.49 to 6.40.
With `COc1cccc(OC)c1C(=O)/C=C/c1c2ccccc2nc2ccccc12`, in the test with HCT-116, the negative logarithm of the IC50 (pIC50) was 5.38.
Turning to `C=CC(C)(C)c1cc(/C=C/C(=O)c2ccc(O)cc2)c(OC)cc1O` [LICOAGROCHACONE A], the pIC50 with SiHa [7] is 4.37; with HeLa [8], 4.31; with HK-2, 4.05; in the test on WI-38, 4.04; in the test with MCF7 [9] it was 4.66; in the test on MDA-MB-231, 4.66. In addition, the pIC50 is 4.59 in the test with MSTO-211H and 4.52 in the test with NCI-H28.
As for `O=C(/C=C(\O)c1ccccc1)c1ccccc1O` [2',beta-DIHYDROXYCHALCONE], the negative-log IC50 (pIC50) with MG-63 was 4.62; in the test with U2OS, 4.71.
As for `CCOc1ccc(C(=O)/C=C/c2ccccc2)c(O)c1`, the negative-log IC50 (pIC50) in the test with PC-3 [10] was 4.86 to 5.09.
As for `O=C(/C=C/c1ccccc1)c1ccc(O)cc1O` [2',4'-DIHYDROXYCHALCONE], in the test on PC-3 [10], the negative logarithm of the IC50 (pIC50) was 4.86 to 5.09.
Turning to `CCn1cc(C(=O)O)c(=O)c2c3c(ccc21)NC(=O)/C3=C1/C(=O)Nc2ccc(Cl)cc21`, in the test with HL-60, the pIC50 was 5.37.
Turning to `CCCOc1ccc(C(=O)/C=C/c2ccccc2)c(O)c1`, the pIC50 in the test with PC-3 [10] is 4.86 to 5.09.
Take `O=C(/C=C/c1ccc(O)cc1)c1ccc(O)cc1O` [ISOLIQUIRITIGENIN]: the pIC50 in the test on Ca-Ski was 4.41; with SiHa [11], 4.27; in the test on HeLa [12], 4.24; in the test on C-33-A, 4.48; in the test with PC-12 it was 4.75; in the test on L02, below 3.00. Further, the negative-log IC50 (pIC50) was 4.27 in the test on SiHa [13] and 4.24 in the test on HeLa [14].
Take `COc1cc(O)c(C(=O)/C=C/c2ccccc2)c2c1C=CC(C)(CCC=C(C)C)O2` (stereo not given) [BOESENBERGIN A]: the negative logarithm of the IC50 (pIC50) with MCF7 [15] and in the test with HeLa [16] was 4.70 throughout.
Take `COc1ccc(C(=O)/C=C/c2ccccc2)c(O)c1`: the pIC50 in the test with PC-3 [10] was 4.86 to 5.09.
Turning to `CC(=O)Oc1ccc(C(=O)/C=C/c2ccccc2)c(O)c1`, the pIC50 in the test on PC-3 [10] is 4.86 to 5.09.
A word on the inhibition: it is the change of the read-out against control, counted positive when it falls. The low end stands for a response near the control, the high end for a response far below the control. As for `O=C(/C=C/c1ccc(O)cc1)/C(C(=O)Nc1ccccc1)=C(O)/C=C/c1ccc(O)cc1`, the inhibition in [17] was 93%; in test [18], 91%; in the test filed under Homo sapiens, 87%.
